Assay results: patent US20100048534A1, “CRYSTALLINE LESTAURTINIB HYDRATES AND CRYSTALLINE LESTAURTINIB HEMIHYDRATE HEMIACETONITRILEATE AND CRYSTALLINE LESTAURTINIB HEMIHYDRATE HEMITETRAHYDROFURANATE” (priority 2005, published 2010)

Test: Solid-state stability and moisture sorption versus relative humidity (dynamic moisture sorption gravimetry, DMSG)
Type: physicochemical

For `C[C@]12O[C@H](C[C@]1(O)CO)n1c3ccccc3c3c4c(c5c6ccccc6n2c5c31)CNC4=O` [Crystalline lestaurtinib anhydrate, lestaurtinib anhydrate], the “water content of solid-state phase by DMSG” value (25° C., between 0% and 5% RH, w/w) was “less than 0.5%” and the “behaviour above 5% RH” value (ambient temperature, above 5% RH) was “absorbs moisture above 5% RH to form crystalline lestaurtinib monohydrate”.
